Laboratory results: patent US10183914B2 (BAYER CROPSCIENCE AKTIENGESELLSCHAFT, priority 2014, dated 2019)

How the values were obtained:
Amaranthus retroflexus = experiment: Pre-emergence herbicidal effect; format: in vivo; conditions: 3 weeks
From the text: (§1) Seeds of monocotyledonous and dicotyledonous weed plants and crop plants are laid out in wood-fiber pots in sandy loam and covered with soil. The compounds of the invention, formulated in the form of wettable powders (WP) or as emulsion concentrates (EC), are then applied to the surface of the covering soil as aqueous suspension or emulsion at a water application rate equating to 600 to 800 L/ha with addition of 0.2% wetting agent.
(§2) After the treatment, the pots are placed in a greenhouse and kept under good growth conditions for the trial plants. The damage to the trial plants is scored visually after a trial duration of 3 weeks by comparison with untreated controls (herbicidal activity in percent (%): 100% efficacy=the plants have died, 0% efficacy=like control plants).

Viola tricolor = experiment: Pre-emergence herbicidal effect; format: in vivo; conditions: 3 weeks
From the text: as §1, §2

Alopecurus myosuroides = experiment: Pre-emergence herbicidal effect; format: in vivo; conditions: 3 weeks
From the text: as §1, §2

Echinochloa crus-galli [1] = experiment: Pre-emergence herbicidal effect; format: in vivo; conditions: 320 g/ha, 3 weeks
From the text: as §1, §2

Setaria viridis = experiment: Pre-emergence herbicidal effect; format: in vivo; conditions: 3 weeks
From the text: as §1, §2

Veronica persica = experiment: Pre-emergence herbicidal effect; format: in vivo; conditions: 3 weeks
From the text: as §1, §2

Matricaria inodora = experiment: Pre-emergence herbicidal effect; format: in vivo; conditions: 3 weeks
From the text: as §1, §2

Zea mays [2] = experiment: Pre-emergence herbicidal effect and crop plant compatibility; format: in vivo; conditions: 3 weeks
From the text: as §1, §2

[3] = test system: Triticum aestivum (spring); experiment: as above; format: in vivo; conditions: 3 weeks
From the text: as §1, §2

Stellaria media = experiment: Pre-emergence herbicidal effect; format: in vivo; conditions: 3 weeks
From the text: as §1, §2

Polygonum convolvulus = experiment: Pre-emergence herbicidal effect; format: in vivo; conditions: 320 g/ha, 3 weeks
From the text: as §1, §2

Lolium multiflorum = experiment: Pre-emergence herbicidal effect; format: in vivo; conditions: 320 g/ha, 3 weeks
From the text: as §1, §2

Oryza sativa [4] = experiment: Pre-emergence herbicidal effect and crop plant compatibility; format: in vivo; conditions: 3 weeks
From the text: as §1, §2

Zea mays [5] = experiment: Post-emergence herbicidal effect and crop plant compatibility; format: in vivo; conditions: visual scoring after about 3 weeks
Experimental: (§3) Seeds of monocotyledonous and dicotyledonous weed and crop plants are laid out in sandy loam in wood-fiber pots, covered with soil and cultivated in a greenhouse under good growth conditions. 2 to 3 weeks after sowing, the test plants are treated at the one-leaf stage. The compounds of the invention, formulated in the form of wettable powders (WP) or as emulsion concentrates (EC), are then sprayed onto the green parts of the plants as aqueous suspension or emulsion at a water application rate equating to 600 to 800 L/ha with addition of 0.2% wetting agent. After the trial plants have been left to stand in a greenhouse under optimal growth conditions for about 3 weeks, the efficacy of the formulations is scored visually in comparison to untreated controls (herbicidal action in percent (%): 100% efficacy=the plants have died, 0% efficacy=like control plants).

[6] = test system: Triticum aestivum (spring); experiment: as above; format: in vivo; conditions: visual scoring after about 3 weeks
Experimental: as §3

Oryza sativa [7] = experiment: as above; format: in vivo; conditions: visual scoring after about 3 weeks
Experimental: as §3

Echinochloa crus-galli [8] = experiment: Post-emergence herbicidal effect; format: in vivo; conditions: 320 g/ha, visual scoring after about 3 weeks
Experimental: as §3

[9] = logp (HCOOH), physicochemical characterization

CC(=O)c1cnc(NC2CCOc3c(C)cccc32)nc1 (racemic) [1.8]
AMARE herbicidal activity in percent (Amaranthus retroflexus; 80 g/ha): 100%
AMARE herbicidal activity in percent (Amaranthus retroflexus; 320 g/ha): 100%
VIOTR herbicidal activity in percent (Viola tricolor; 320 g/ha): 100%
ALOMY herbicidal activity in percent (Alopecurus myosuroides; 80 g/ha): 0%
ALOMY herbicidal activity in percent (Alopecurus myosuroides; 320 g/ha): 0%
ECHCG herbicidal activity in percent (Echinochloa crus-galli [1]): 90%
SETVI herbicidal activity in percent (Setaria viridis; 320 g/ha): 80%
VERPE herbicidal activity in percent (Veronica persica; 320 g/ha): 100%
MATIN herbicidal activity in percent (Matricaria inodora; 320 g/ha): 100%
ZEAMX herbicidal activity in percent (Zea mays [2]; 80 g/ha): 0%
ZEAMX herbicidal activity in percent (Zea mays [2]; 320 g/ha): 0%
TRZAS herbicidal activity in percent ([3]; 80 g/ha): 0%
TRZAS herbicidal activity in percent ([3]; 320 g/ha): 0%

Cc1ccc2c(c1)[C@H](Nc1ncc3c(n1)CC(C(C)C)CC3=O)[C@@H](C)C2 (stereo partly shown) [2.104]
AMARE herbicidal activity in percent (Amaranthus retroflexus; 320 g/ha): 100%
VIOTR herbicidal activity in percent (Viola tricolor; 80 g/ha): 90%
VIOTR herbicidal activity in percent (Viola tricolor; 320 g/ha): 100%
SETVI herbicidal activity in percent (Setaria viridis; 320 g/ha): 100%
VERPE herbicidal activity in percent (Veronica persica; 80 g/ha): 100%
VERPE herbicidal activity in percent (Veronica persica; 320 g/ha): 100%
STEME herbicidal activity in percent (Stellaria media; 80 g/ha): 100%
STEME herbicidal activity in percent (Stellaria media; 320 g/ha): 100%
POLCO herbicidal activity in percent (Polygonum convolvulus): 100%
LOLMU herbicidal activity in percent (Lolium multiflorum): 90%
MATIN herbicidal activity in percent (Matricaria inodora; 80 g/ha): 80%
MATIN herbicidal activity in percent (Matricaria inodora; 320 g/ha): 100%
ZEAMX herbicidal activity in percent (Zea mays [2]; 80 g/ha): 0%
ZEAMX herbicidal activity in percent (Zea mays [2]; 320 g/ha): 0%
TRZAS herbicidal activity in percent ([3]; 80 g/ha): 0%
ORYSA herbicidal activity in percent (Oryza sativa [4]; 80 g/ha): 20%
ORYSA herbicidal activity in percent (Oryza sativa [4]; 320 g/ha): 20%
post-emergence efficacy ZEAMX (Zea mays [5]; 80 g/ha): 0%
post-emergence efficacy ZEAMX (Zea mays [5]; 320 g/ha): 0%
post-emergence efficacy TRZAS ([6]; 80 g/ha): 0%
post-emergence efficacy TRZAS ([6]; 320 g/ha): 0%
post-emergence efficacy ORYSA (Oryza sativa [7]; 80 g/ha): 0%
post-emergence efficacy ORYSA (Oryza sativa [7]; 320 g/ha): 0%

CC(C)C1CC(=O)c2cnc(N[C@@H]3CCCc4ccccc43)nc2C1 (stereo partly shown) [2.102]
AMARE herbicidal activity in percent (Amaranthus retroflexus; 80 g/ha): 80%
AMARE herbicidal activity in percent (Amaranthus retroflexus; 320 g/ha): 100%
VIOTR herbicidal activity in percent (Viola tricolor; 80 g/ha): 100%
VIOTR herbicidal activity in percent (Viola tricolor; 320 g/ha): 100%
ALOMY herbicidal activity in percent (Alopecurus myosuroides; 320 g/ha): 100%
ECHCG herbicidal activity in percent (Echinochloa crus-galli [1]): 100%
SETVI herbicidal activity in percent (Setaria viridis; 80 g/ha): 100%
SETVI herbicidal activity in percent (Setaria viridis; 320 g/ha): 100%
VERPE herbicidal activity in percent (Veronica persica; 80 g/ha): 100%
VERPE herbicidal activity in percent (Veronica persica; 320 g/ha): 100%
STEME herbicidal activity in percent (Stellaria media; 80 g/ha): 100%
STEME herbicidal activity in percent (Stellaria media; 320 g/ha): 100%
POLCO herbicidal activity in percent (Polygonum convolvulus): 90%
LOLMU herbicidal activity in percent (Lolium multiflorum): 100%
MATIN herbicidal activity in percent (Matricaria inodora; 80 g/ha): 90%
MATIN herbicidal activity in percent (Matricaria inodora; 320 g/ha): 100%
ZEAMX herbicidal activity in percent (Zea mays [2]; 80 g/ha): 0%
ZEAMX herbicidal activity in percent (Zea mays [2]; 320 g/ha): 0%
TRZAS herbicidal activity in percent ([3]; 80 g/ha): 0%
TRZAS herbicidal activity in percent ([3]; 320 g/ha): 0%
ORYSA herbicidal activity in percent (Oryza sativa [4]; 80 g/ha): 0%
ORYSA herbicidal activity in percent (Oryza sativa [4]; 320 g/ha): 0%
post-emergence efficacy ZEAMX (Zea mays [5]; 80 g/ha): 0%
post-emergence efficacy ZEAMX (Zea mays [5]; 320 g/ha): 0%
post-emergence efficacy TRZAS ([6]; 80 g/ha): 20%
post-emergence efficacy ORYSA (Oryza sativa [7]; 80 g/ha): 0%
post-emergence efficacy ORYSA (Oryza sativa [7]; 320 g/ha): 0%
post-emergence efficacy ECHCG (Echinochloa crus-galli [8]): 100%

O=C1CC(c2ccc(F)cc2)Cc2nc(N[C@@H]3CCCc4ccccc43)ncc21 (stereo partly shown) [2.92]
AMARE herbicidal activity in percent (Amaranthus retroflexus; 80 g/ha): 80%
AMARE herbicidal activity in percent (Amaranthus retroflexus; 320 g/ha): 100%
VIOTR herbicidal activity in percent (Viola tricolor; 80 g/ha): 90%
VIOTR herbicidal activity in percent (Viola tricolor; 320 g/ha): 100%
ECHCG herbicidal activity in percent (Echinochloa crus-galli [1]): 100%
SETVI herbicidal activity in percent (Setaria viridis; 320 g/ha): 100%
VERPE herbicidal activity in percent (Veronica persica; 80 g/ha): 100%
VERPE herbicidal activity in percent (Veronica persica; 320 g/ha): 100%
STEME herbicidal activity in percent (Stellaria media; 80 g/ha): 100%
STEME herbicidal activity in percent (Stellaria media; 320 g/ha): 100%
MATIN herbicidal activity in percent (Matricaria inodora; 320 g/ha): 90%
ZEAMX herbicidal activity in percent (Zea mays [2]; 80 g/ha): 0%
ZEAMX herbicidal activity in percent (Zea mays [2]; 320 g/ha): 20%
TRZAS herbicidal activity in percent ([3]; 80 g/ha): 0%
TRZAS herbicidal activity in percent ([3]; 320 g/ha): 20%
ORYSA herbicidal activity in percent (Oryza sativa [4]; 80 g/ha): 0%
ORYSA herbicidal activity in percent (Oryza sativa [4]; 320 g/ha): 20%
logp (HCOOH) [9]: oily; logp (HCOOH): 4.05; 1H-NMR (CDCl3, 400 MHZ, δ in ppm): 1.95 (m, 3H, 2H
post-emergence efficacy ZEAMX (Zea mays [5]; 80 g/ha): 0%
post-emergence efficacy ZEAMX (Zea mays [5]; 320 g/ha): 0%
post-emergence efficacy TRZAS ([6]; 80 g/ha): 0%
post-emergence efficacy TRZAS ([6]; 320 g/ha): 10%
post-emergence efficacy ORYSA (Oryza sativa [7]; 80 g/ha): 0%
post-emergence efficacy ORYSA (Oryza sativa [7]; 320 g/ha): 0%
